These are literature values, as cited in patent US12427123B2, “Phenylephrine hydrochloride compositions and containers” (Endo Operations Limited, priority 2020, dated 2025).

Like-named read-outs stand apart in the source and are kept apart here.

Assay in series [1]: not given
The source holds these as a separate data set.

On to `CNC[C@H](O)c1cccc(O)c1.Cl` [Phenylephrine hydrochloride], for which the solubility result is “insoluble” (chloroform), “freely soluble” (ethanol), “insoluble” (ethyl ether) and “very soluble” (water).
Regarding `CNC[C@H](O)c1cccc(O)c1` [phenylephrine], the “optical stability (racemization as a function of pH)” value (solutions at pH 3.0 and pH 6.0) was “optically stable”. Besides, in series [1] (in vivo), the “dose excreted unchanged in the urine” value was 12%. Further, the α-phase half-life in series [1] (intravenous administration, 2-compartment model, distribution from central compartment) is given as under 5 min.
